Experimental data from patent US7001905B2, “Substituted diarylamines as MEK inhibitors” (Warner-Lambert Company, priority 2000, dated 2006).

Experiments:
MEK = biological target: T1, MEK (Homo sapiens, UniProt Q02750); test: in vitro MEK assay; assay type: biochemical
T1 construct: no tag is given for the 2D mutant
Method in brief: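 GST-MEK (10 μg) or activated GST-MEK-2E (S218E/S222E, 5 μg) phosphorylates kinase-dead GST-MAPK-KA (K71A, 5 μg) with 10 μM [γ-32P]ATP in 50 mM Tris pH 7.5 for 15 min at 30 °C. Read-out: SDS-PAGE, autoradiography and scintillation counting of excised bands.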

T1 sequence (Q02750 whole entry S218D/S222D, form open): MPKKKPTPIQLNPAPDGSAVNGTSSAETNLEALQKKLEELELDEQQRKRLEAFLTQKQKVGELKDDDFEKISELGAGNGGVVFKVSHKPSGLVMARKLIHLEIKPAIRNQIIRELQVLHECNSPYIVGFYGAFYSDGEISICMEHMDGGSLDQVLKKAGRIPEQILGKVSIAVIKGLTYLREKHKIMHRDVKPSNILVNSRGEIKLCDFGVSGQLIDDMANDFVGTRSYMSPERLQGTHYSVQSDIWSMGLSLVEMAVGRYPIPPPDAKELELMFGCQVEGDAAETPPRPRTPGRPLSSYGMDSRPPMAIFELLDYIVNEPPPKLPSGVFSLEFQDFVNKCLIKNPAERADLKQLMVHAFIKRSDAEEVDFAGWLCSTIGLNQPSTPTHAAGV

An IC50 (MEK) of 6.6 µM and a melting point of 219 to 223 °C were found for `CNC(=O)c1cc2c(c(F)c1F)N(c1ccc(I)cc1C)COC2=O` [Example 2, 7,8-Difluoro-1-(4-iodo-2-methyl-phenyl)-4-oxo-1,4-dihydro-2H-benzo[d][1,3]oxazine-6-carboxylic acid methylamide] in this work.
An IC50 (MEK) of 2.4 µM and a melting point of 254 to 259 °C were found for `CNC(=O)c1cc(C(=O)O)c(Nc2ccc(I)cc2C)c(F)c1F` [Example 3, 4,5-Difluoro-6-(-4-iodo-2-methyl-phenylamino)-N-methyl-isophthalamic acid] in this work.
An IC50 (MEK) of 1.1 µM and a melting point of 198 to 202 °C were found for `CNC(=O)c1cc(C(=O)NOCC2CC2)c(Nc2ccc(I)cc2C)c(F)c1F` [Example 4, N^1-Cycloprolylmethoxy-4,5-difluoro-6-(4-iodo-2-methyl-phenylamino)-N^3-methyl-isophthalamide] in this work.
An IC50 (MEK) of 4.3 µM and a melting point of 78 to 80 °C were found for `Cc1cc(I)ccc1Nc1c(C(=O)NOCC2CC2)cc(C(=O)N(C)C)c(F)c1F` [Example 6, N^1-Cyclopropylmethoxy-4,5-difluoro-6-(4-iodo-2-methyl-phenylamino)-N^3,N^3-dimethyl-isophthalamide] in this work.
